{
  "source": "patent US8906825B2",
  "about": "“Herbicidal compositions comprising 4-amino-3-chloro-5-fluoro-6-(4-chloro-2-fluoro-3-methoxyphenyl) pyridine-2-carboxylic acid or a derivative thereof and triazolopyrimidine sulfonamides” (Dow AgroSciences LLC, priority 2012, dated 2014)",
  "experiment_in_all_cases": "Postemergence foliar-applied herbicidal mixtures, cereal crops, greenhouse (Example III)",
  "format_in_all_cases": "in vivo",
  "key": {"[1]": {"tested_on": "CIRAR (Cirsium arvense (L.) Scop., Canada thistle)", "conditions": "visual score 0 to 100 percent after 20-22 days", "experimental": "(§1) Seeds of the desired test plant species were planted in Sun Gro MetroMix® 306 planting mixture, which typically has a pH of 6.0 to 6.8 and an organic matter content of about 30 percent, in plastic pots with a surface area of 103.2 square centimeters (cm^2). […] The plants were grown for 7-36 days in a greenhouse with an approximate 14 hour photoperiod which was maintained at about 18° C. during the day and about 17° C. during the night. Nutrients and water were added on a regular basis and supplemental lighting was provided with overhead metal halide 1000-Watt lamps as necessary. The plants were employed for testing when they reached the second or third true leaf stage.\n(§2) Treatments consisted of the benzyl ester of 4-amino-3-chloro-5-fluoro-6-(4-chloro-2-fluoro-3-methoxy-phenyl)pyridine-2-carboxylic acid (Compound A), formulated as an SC, a second cereal herbicide alone and then both in combination.\n(§3) Other herbicidal components were applied on an active ingredient basis and included acetolactate synthase (ALS)-inhibiting herbicides (sulfonamide chemical class) florasulam formulated as Derby® and pyroxsulam formulated as PowerFlex®. A measured aliquot of benzyl ester of 4-amino-3-chloro-5-fluoro-6-(4-chloro-2-fluoro-3-methoxy-phenyl)pyridine-2-carboxylic acid (Compound A) was placed in 25 milliliter (mL) glass vials and diluted in a volume of 1.25% (v/v) AgriDex® crop oil concentrated to obtain a stock solution. Compound requirements are based upon a 12 mL application volume at a rate of 187 liters per hectare (L/ha). […] Formulated compounds were applied to the plant material with an overhead Mandel track sprayer equipped with an 8002E nozzle calibrated to deliver 187 L/ha over an application area of 0.503 square meters (m^2) at a spray height of 18 inches (46 cm) above average plant canopy. Control plants were sprayed in the same manner with the solvent blank.\n(§4) The treated plants and control plants were placed in a greenhouse as described above and watered by sub-irrigation to prevent wash-off of the test compounds. After 20-22 days, the condition of the test plants as compared with that of the control plants was determined visually and scored on a scale of 0 to 100 percent where 0 corresponds to no injury and 100 corresponds to complete kill.\n(§5) Colby's equation was used to determine the herbicidal effects expected from the mixtures (Colby, S. R. 1967. Calculation of the synergistic and antagonistic response of herbicide combinations. Weeds 15:20-22.).\n(§6) The following equation was used to calculate the expected activity of mixtures containing two active ingredients, A and B: Expected=A+B−(A×B/100)"}, "[2]": {"tested_on": "LAMPU (Lamium purpureum (L.), purple deadnettle)", "conditions": "Florasulam 1.25 gai/ha, visual score 0 to 100 percent after 20-22 days", "experimental": "as §1, §2, §3, §4, §5, §6"}, "[3]": {"tested_on": "MATCH (Chamomilla chamomilla (L.) Rydb., scented mayweed)", "conditions": "Florasulam 3.75 gai/ha, visual score 0 to 100 percent after 20-22 days", "experimental": "as §1, §2, §3, §4, §5, §6"}, "[4]": {"tested_on": "SASKR (Salsola iberica (L.), Russian thistle)", "conditions": "Florasulam 3.75 gai/ha, visual score 0 to 100 percent after 20-22 days", "experimental": "as §1, §2, §3, §4, §5, §6"}, "[5]": {"tested_on": "VERPE (Veronica persica Poir., bird's-eye speedwell)", "conditions": "visual score 0 to 100 percent after 20-22 days", "experimental": "as §1, §2, §3, §4, §5, §6"}, "[6]": {"tested_on": "VIOTR (Viola tricolor (L.), wild pansy)", "conditions": "Florasulam 3.75 gai/ha, visual score 0 to 100 percent after 20-22 days", "experimental": "as §1, §2, §3, §4, §5, §6"}},
  "data": [
    {"smiles": "COc1ncc(F)c2nc(S(=O)(=O)Nc3c(F)cccc3F)nn12", "note": "[Florasulam, N-(2,6-difluorophenyl)-8-fluoro-5-methoxy[1,2,4]triazolo[1,5-c]pyrimidine-2-sulfonamide, reference compound]", "values": [
      {"measurement": "CIRAR Obs", "setting": "[1]; Florasulam 1.25 gai/ha", "value": 55, "unit": "%"},
      {"measurement": "CIRAR Obs", "setting": "[1]; Florasulam 3.75 gai/ha", "value": 40, "unit": "%"},
      {"measurement": "LAMPU Obs", "setting": "[2]", "value": 10, "unit": "%"},
      {"measurement": "MATCH Obs", "setting": "[3]", "value": 65, "unit": "%"},
      {"measurement": "SASKR Obs", "setting": "[4]", "value": 30, "unit": "%"},
      {"measurement": "VERPE Obs", "setting": "[5]; Florasulam 1.25 gai/ha", "value": 10, "unit": "%"},
      {"measurement": "VERPE Obs", "setting": "[5]; Florasulam 3.75 gai/ha", "value": 10, "unit": "%"},
      {"measurement": "VIOTR Obs", "setting": "[6]", "value": 65, "unit": "%"}
    ]}
  ]
}
